Test results published in patent US7973047B2, “Beta-Secretase modulators and methods of use” (Amgen Inc., priority 2010, dated 2011).
Where two headings read alike, the source gives them in different places.

System: Aβ40 in conditioned medium of cells stably expressing Amyloid Precursor Protein (APP)
Test: BACE cell-based assay: Aβ40 in conditioned medium by sandwich ELISA
Protocol: The cell-based assay measures inhibition or reduction of Aβ40 in conditioned medium of test compound treated cells expressing amyloid precursor protein.
Cells stably expressing Amyloid Precursor Protein (APP) were plated at a density of 40K cells/well in 96 well plates (Costar). The cells were cultivated for 24 hours at 37° C. and 5% CO2 in DMEM supplemented with 10% FBS. The test compounds were then added to cells in 10-point dose response concentrations with the starting concentration being either 100 μM or 10 μM. The compounds were diluted from stock solutions in DMSO and the final DMSO concentration of the test compounds on cells was 0.1%. After 24 h of incubation with the test compounds the supernatant conditioned media was collected and the Aβ40 levels were determined using a sandwich ELISA. The ICso of the compound was calculated from the percent of control or percent inhibition of Aβ40 as a function of the concentration of the test compound.
The sandwich ELISA to detect Aβ40 was performed in 96 well microtiter plates, which were pre-treated with goat anti-rabbit IgG (Pierce). The capture and detecting antibody pair that were used to detect Aβ40 from cell supernatants were affinity purified pAb40 (Biosource) and biotinylated 6E10 (Signet Labs Inc.), respectively. The optimal concentration for the pAb40 antibody was 3 μg/ml in Superblock/TBS (Pierce) that was supplemented with 0.05% Tween 20 (Sigma).
Cellular supernatants were incubated with the capture antibody for 3 h at 4° C., followed by 3 wash steps in TBS-tween (0.05%). The detecting antibody incubation was for 2 h at 4° C., again followed by the wash steps as described previously. The final readout of the ELISA is Time-Resolved Fluorescence (counts per minute) using Delfia reagents Streptavidin-Europium and Enhancement solutions (Perkin Elmer) and the Victor 2 multilabel counter (Perkin Elmer).

[1] = cells stably expressing APP, 24 h incubation with compound, Aβ40 in supernatant by sandwich ELISA, read-out: IC50 values in the cell-based assay (inhibition or reduction of Aβ40)
[2] = cell based assay data of Table 4, unit inferred, read-out: Cell Assay

`CC(=O)N[C@@H](Cc1cc(F)cc(F)c1)[C@H](O)CN[C@H]1C[C@@]2(CCOC2)Oc2c(Br)cc(Cl)cc21` [Example 249] was tested. Which IC50 [1] did it give?
Its IC50 is at most 5000 nM.

Which IC50 [1] does the source give for `CCc1ccc2c(c1)[C@@H](NC[C@@H](O)[C@H](Cc1cccc(Br)c1)NC(=O)CCCCCCNC(=O)OCc1ccccc1)CC1(CCC1)O2` [Example 337] here?
The IC50 was at most 5000 nM.

With `CC(=O)N[C@@H](Cc1ccccc1)[C@H](O)CN[C@H]1CC2(CCC2)Oc2ncc(C3CCCO3)cc21` (some centres unmarked) [Example 384] as the compound, how does the IC50 [1] read?
The IC50 was at most 5000 nM.

For `CC(=O)N[C@@H](Cc1cc(F)cc(F)c1)[C@H](O)CN[C@H]1CC2(CCC2)Oc2ccc(-c3cn(C)nn3)cc21` [compound 520], which IC50 [2] is on record?
Its IC50 is 2160 nM.

`CC(=O)N[C@@H](Cc1ccccc1)[C@H](O)CN[C@H]1CC2(CCC2)Oc2ccc(-c3cn(C)nn3)cc21` [compound 521] was tested. Which IC50 [2] did it give?
The IC50 was at least 10000 nM.

How did the IC50 [2] turn out when `CC(=O)N[C@@H](Cc1ccccc1)[C@H](O)CN[C@H]1CC2(CCC2)Oc2ncc(CC(C)C)cc21` [compound 523] was run?
Its IC50 is 4.09 nM.

Which IC50 [2] does the source give for `CC(=O)N[C@@H](Cc1cccc(C#N)c1)[C@H](O)CN[C@H]1CC2(CCC2)Oc2ncc(CC(C)(C)F)cc21` [compound 524] here?
Its IC50 is 2.42 nM.

For `CC(=O)N[C@@H](Cc1cccc(F)c1)[C@H](O)CN[C@H]1CC2(CCC2)Oc2ncc(CC(C)(C)F)cc21` [compound 525], which IC50 [2] is on record?
The IC50 was 3.94 nM.

With `CC(=O)N[C@@H](Cc1cccc(C#N)c1)[C@H](O)CN[C@H]1CC(C)(C)Oc2ccc(Br)cc21` [compound 526] as the compound, how does the IC50 [2] read?
The IC50 was 116 nM.

Which IC50 [2] does the source give for `COCC(=O)N[C@@H](Cc1cccc(C#N)c1)[C@H](O)CN[C@H]1CC(C)(C)Oc2ccc(Br)cc21` [compound 527] here?
Its IC50 is 120 nM.

Which IC50 [2] does the source give for `CN(C)CC(=O)N[C@@H](Cc1cccc(C#N)c1)[C@H](O)CN[C@H]1CC(C)(C)Oc2ccc(Br)cc21` [compound 528] here?
The IC50 was 1120 nM.

With `CCc1cc(Br)c2c(c1)[C@@H](NC[C@@H](O)[C@H](Cc1cccc(C#N)c1)NC(C)=O)CC(C)(C)O2` [compound 529] as the compound, how does the IC50 [2] read?
The IC50 was 33.9 nM.

Which IC50 [2] does the source give for `CCc1cc2c(c(N3CCOCC3)c1)OC(C)(C)C[C@@H]2NC[C@@H](O)[C@H](Cc1cccc(C#N)c1)NC(C)=O` [compound 532] here?
Its IC50 is 11.2 nM.

Which IC50 [2] does the source give for `CCc1cc(NC)c2c(c1)[C@@H](NC[C@@H](O)[C@H](Cc1ccccc1)NC(C)=O)CC(C)(C)O2` [compound 535] here?
The IC50 was 924 nM.

With `CC(=O)N[C@@H](Cc1ccc(F)cc1)[C@H](O)CN[C@H]1CC2(CCC2)Oc2c1cc(CC(C)(C)C)cc2N1CCOCC1` [compound 536] as the compound, how does the IC50 [2] read?
The IC50 was 2090 nM.

With `CC(=O)N[C@@H](Cc1ccccc1)[C@H](O)CN[C@H]1CC2(CCC2)Oc2c1cc(CC(C)(C)C)cc2N1CCOCC1` [compound 537] as the compound, how does the IC50 [2] read?
The IC50 was 1970 nM.

Which IC50 [2] does the source give for `CC(=O)N[C@@H](CC(C)C)[C@H](O)CN[C@H]1CC2(CCC2)Oc2ncc(CC(C)(C)C)cc21` [compound 538, N-((1S)-1-((1R)-2-(((4′S)-6′-(2,2-dimethylpropyl)-3′,4′-dihydrospiro[cyclobutane-1,2′-pyrano[2,3-b]pyridin]-4′-yl)amino)-1-hydroxyethyl)-3-methylbutyl)acetamide] here?
Its IC50 is 177 nM.

How did the IC50 [2] turn out when `C=C(C)C[C@H](NC(C)=O)[C@H](O)CN[C@H]1CC2(CCC2)Oc2ncc(CC(C)(C)C)cc21` [compound 539, N-((1S)-1-((1R)-2-(((4′S)-6′-(2,2-dimethylpropyl)-3′,4′-dihydrospiro[cyclobutane-1,2′-pyrano[2,3-b]pyridin]-4′-yl)amino)-1-hydroxyethyl)-3-methyl-3-buten-1-yl)acetamide] was run?
The IC50 was 50.3 nM.

With `CC(=O)N[C@@H](Cc1cccc(C#N)c1)[C@H](O)CN[C@H]1CC2(CCC2)Oc2ncc(CC(C)(C)C)cc21` [compound 540, N-((1S,2R)-1-((3-cyanophenyl)methyl)-3-(((4′S)-6′-(2,2-dimethylpropyl)-3′,4′-dihydrospiro[cyclobutane-1,2′-pyrano[2,3-b]pyridin]-4′-yl)amino)-2-hydroxypropyl)acetamide] as the compound, how does the IC50 [2] read?
Its IC50 is 2.03 nM.

With `CC(=O)N[C@@H](Cc1ccccc1)[C@H](O)CN[C@H]1CC2(CCC2)Cc2ncc(C)cc21` [compound 541, N-((1S,2R)-2-hydroxy-3-(((5′S)-3′-methyl-5′,8′-dihydro-6′H-spiro[cyclobutane-1,7′-quinolin]-5′-yl)amino)-1-(phenylmethyl)propyl)acetamide] as the compound, how does the IC50 [2] read?
Its IC50 is 651 nM.

For `CC(=O)N[C@@H](Cc1cccc(C#N)c1)[C@H](O)CN[C@H]1CC2(CCC2)Cc2ncc(C)cc21` [compound 542, N-((1S,2R)-1-((3-cyanophenyl)methyl)-2-hydroxy-3-(((5′S)-3′-methyl-5′,8′-dihydro-6′H-spiro[cyclobutane-1,7′-quinolin]-5′-yl)amino)propyl)acetamide], which IC50 [2] is on record?
Its IC50 is 64.6 nM.

For `CC(=O)N[C@@H](Cc1cccc(C#N)c1)[C@H](O)CN[C@H]1CC(C)(C)Cc2ncc(C)cc21` [compound 543], which IC50 [2] is on record?
The IC50 was 124 nM.

For `CC(=O)N[C@@H](Cc1cc(F)cc(F)c1)[C@H](O)CN[C@H]1CC2(CCC2)Oc2ccc(-c3ncco3)cc21` [compound 544], which IC50 [2] is on record?
The IC50 was 631 nM.

With `CC(=O)N[C@@H](Cc1ccccc1)[C@H](O)CN[C@H]1CC(C)(C)Oc2ncc(CC(C)(C)C)cc21` [compound 545] as the compound, how does the IC50 [2] read?
Its IC50 is 4.61 nM.

Which IC50 [2] does the source give for `CC(=O)N[C@@H](Cc1cccc(F)c1)[C@H](O)CN[C@H]1CC(C)(C)Oc2ncc(CC(C)(C)C)cc21` [compound 546] here?
The IC50 was 1.67 nM.

For `CC(=O)N[C@@H](Cc1ccc(F)cc1)[C@H](O)CN[C@H]1CC2(CCCC2)Oc2ncc(CC(C)(C)C)cc21` [compound 547], which IC50 [2] is on record?
Its IC50 is 34.8 nM.

With `CC(=O)N[C@@H](Cc1cc(F)cc(F)c1)[C@H](O)CN[C@H]1CC2(CCCC2)Oc2ncc(CC(C)(C)C)cc21` [compound 548] as the compound, how does the IC50 [2] read?
Its IC50 is 2.83 nM.

`CC(=O)N[C@@H](Cc1cccc(F)c1)[C@H](O)CN[C@H]1CC2(CCCC2)Oc2ncc(CC(C)(C)C)cc21` [compound 549] was tested. Which IC50 [2] did it give?
Its IC50 is 6.93 nM.

For `CC(=O)N[C@@H](Cc1ccc(F)cc1)[C@H](O)CN[C@H]1CC2(CCC2)Oc2ncc([C@H](F)C(C)C)cc21` [compound 552, N-((1S,2R)-3-(((4′S)-6′-((1R)-1-fluoro-2-methylpropyl)-3′,4′-dihydrospiro[cyclobutane-1,2′-pyrano[2,3-b]pyridin]-4′-yl)amino)-1-((4-fluorophenyl)methyl)-2-hydroxypropyl)acetamide], which IC50 [2] is on record?
Its IC50 is 1260 nM.

For `CC(=O)N[C@@H](Cc1ccc(F)cc1)[C@H](O)CN[C@H]1CC2(CCC2)Oc2ncc([C@@H](F)C(C)C)cc21` [compound 553], which IC50 [2] is on record?
The IC50 was 272 nM.

Which IC50 [2] does the source give for `CC(=O)N[C@@H](Cc1cccc(F)c1)[C@H](O)CN[C@H]1CC2(CCC2)Oc2ncc([C@@H](F)C(C)C)cc21` [compound 555] here?
Its IC50 is 1430 nM.

`CC(=O)N[C@@H](Cc1ccc(F)cc1)[C@H](O)CN[C@H]1CC2(CCC2)Nc2ccc(CC(C)(C)C)cc21` [compound 559, N-((1S,2R)-3-(((4′S)-6′-(2,2-dimethylpropyl)-3′,4′-dihydro-1′H-spiro[cyclobutane-1,2′-quinolin]-4′-yl)amino)-1-((4-fluorophenyl)methyl)-2-hydroxypropyl)acetamide] was tested. Which IC50 [2] did it give?
Its IC50 is 105 nM.

Which IC50 [2] does the source give for `CC(=O)N[C@@H](Cc1cc(F)cc(F)c1)[C@H](O)CN[C@H]1CC2(CCC2)Nc2ccc(CC(C)(C)C)cc21` [compound 560, N-((1S,2R)-1-((3,5-difluorophenyl)methyl)-3-(((4′S)-6′-(2,2-dimethylpropyl)-3′,4′-dihydro-1′H-spiro[cyclobutane-1,2′-quinolin]-4′-yl)amino)-2-hydroxypropyl)acetamide] here?
The IC50 was 11.7 nM.

`CC(=O)N[C@@H](Cc1cccc(F)c1)[C@H](O)CN[C@H]1CC2(CCC2)Nc2ccc(CC(C)(C)C)cc21` [compound 561, N-((1S,2R)-3-(((4′S)-6′-(2,2-dimethylpropyl)-3′,4′-dihydro-1′H-spiro[cyclobutane-1,2′-quinolin]-4′-yl)amino)-1-((3-fluorophenyl)methyl)-2-hydroxypropyl)acetamide] was tested. Which IC50 [2] did it give?
Its IC50 is 29.4 nM.

`CC(=O)N[C@@H](Cc1ccc(F)c(Br)c1)[C@H](O)CN[C@H]1CC2(CCC2)Nc2ccc(CC(C)(C)C)cc21` [compound 562, N-((1S,2R)-1-((3-bromo-4-fluorophenyl)methyl)-3-(((4′S)-6′-(2,2-dimethylpropyl)-3′,4′-dihydro-1′H-spiro[cyclobutane-1,2′-quinolin]-4′-yl)amino)-2-hydroxypropyl)acetamide] was tested. Which IC50 [2] did it give?
Its IC50 is 141 nM.

With `CC(=O)N[C@@H](Cc1ccc(F)cc1)[C@H](O)CN[C@H]1CC2(CCCC2)C(=O)c2ccc(CC(C)(C)C)cc21` [compound 563, N-((1S,2R)-3-(((4′S)-6′-(2,2-dimethylpropyl)-1′-oxo-3′,4′-dihydro-1′H-spiro[cyclopentane-1,2′-naphthalen]-4′-yl)amino)-1-((4-fluorophenyl)methyl)-2-hydroxypropyl)acetamide] as the compound, how does the IC50 [2] read?
The IC50 was at least 10000 nM.

For `CC(=O)N[C@@H](Cc1ccc(F)cc1)[C@H](O)CN[C@@H]1CC2(CCCC2)C(=O)c2ccc(CC(C)(C)C)cc21` [compound 564, N-((1S,2R)-3-(((4′R)-6′-(2,2-dimethylpropyl)-1′-oxo-3′,4′-dihydro-1′H-spiro[cyclopentane-1,2′-naphthalen]-4′-yl)amino)-1-((4-fluorophenyl)methyl)-2-hydroxypropyl)acetamide], which IC50 [2] is on record?
The IC50 was 569 nM.

How did the IC50 [2] turn out when `CCc1cnc2c(c1)[C@@H](NC[C@@H](O)[C@H](Cc1cccc(F)c1)NC(C)=O)CC1(CCC1)O2` [compound 566] was run?
Its IC50 is 29 nM.
